Laboratory results taken from US12590953B2, “Methods for screening cereblon modifying compounds” (CELGENE CORPORATION, priority 2018, dated 2026).
“Also recorded” adds a separate entry of the source.

What was measured:
[1] = Toxicokinetics in huCRBN mice; assay type: in vivo; details: oral, GD 15
Procedure: Thalidomide was administered to female HOM huCRBN mice by oral gavage at dose levels of 0 (1.0% [w/v] carboxymethylcellulose [1500-3000 cP] in RO deionized water), 100, 300, or 1000 mg/kg/day once daily on Gestation Day [GD] 6 through 15. On GD 15, blood samples were collected from the submandibular vein of mice assigned to study at 0.5, 1, 3, 6, and 24 hours postdose for bioanalytical and toxicokinetic evaluation. […] Mice were euthanized and examined, and a gross necropsy was performed. The ovaries and uterus were examined for number and distribution of corpora lutea, implantation sites, placentae (size, color, and shape), live and dead fetuses, and early and late resorptions. Fetuses were euthanized by an intraperitoneal injection of sodium pentobarbital (390 mg/mL). Fetuses were weighed and examined for sex and external abnormalities. Late resorptions were examined for external abnormalities and sex to the extent possible. The body weight of each fetus was recorded. Fetuses were individually identified with the study number, litter number and uterine distribution. Approximately one-half of the fetuses in each litter were examined for visceral abnormalities by using an adaptation of the sectioning technique of Wilson. Each fetus was fixed in Bouin's solution; sections were stored in alcohol. The remaining fetuses (approximately one-half of the fetuses in each litter) were examined for skeletal abnormalities after staining with alizarin red S. Following examination, skeletal preparations were retained in glycerin with thymol added as a preservative.

SALL4 = SALL4 immunohistochemistry in rabbit embryos; assay type: in vivo; details: pregnant rabbits, 180 mg/kg per day from GD7, embryos GD8-12; 180 mg/kg/day
Procedure: All animals were housed and fed according to IACUC approved procedures. The rabbits either remained untreated (n=4 per time point) or received 180 mg/kg of Thalidomide per day (n=5 per time point) starting on GD7. Dose levels and sensitive gestation windows were selected based on previously reported finding in Thalidomide teratogenicity studies (Christian MS, birth defect research, 2007)
Cesarean sections were performed in each rabbit 3 hours after the last Thalidomide dose to ensure maximum plasma concentration of Thalidomide (CMax=3 hours) (Hui et al, Reproductive Toxicology, 2014). The uteri were removed, the implantation sites were counted and mortality and resorptions noted during embryo dissection. GD8 embryos were not dissected and were fixed in situ attached to the placental site and uterine wall. The entire implantation site was processed, embedded in paraffin and sectioned at 4 microns for immunohistochemistry. GD 9-12 embryos were collected with fetal membranes, fixed in 10% Neutral Buffered Formalin for 24 hours and transferred to 70% Ethanol. After fixation fetal membranes were removed and embryos processed, embedded in paraffin and sectioned at 4 microns for immunohistochemistry and in situ hybridization procedures.
Rabbit embryos were stained for SALL4, and mouse testis were stained for SALL4 and ZFP91. […]

[2] = tested on: SALL4 binding to cereblon; assay type: cell-based, human
Procedure: Binding of full length SALL4 to cereblon in cells was then tested by co-immunoprecipitation (see FIG. 3). HA-tagged WT, G416A, or G600A SALL4 was immunoprecipitated from cells, and the level of co-purifying cereblon was assessed by western blot. Briefly, a Lenti-x 293 cell line with a CRISPR-cas9 knock-out of cereblon and stable expression of HA-tagged SALL4 or SALL4 mutants was transfected with either GST-cereblon or empty vector. […] The amount of co-purifying GST-cereblon was then assessed by western blot.

Ikaros = Ikaros (Homo sapiens, UniProt Q13422+Q96SW2); experiment: Degradation of Ikaros (data not shown)
Chain of Ikaros (Q13422 whole entry, species assumed): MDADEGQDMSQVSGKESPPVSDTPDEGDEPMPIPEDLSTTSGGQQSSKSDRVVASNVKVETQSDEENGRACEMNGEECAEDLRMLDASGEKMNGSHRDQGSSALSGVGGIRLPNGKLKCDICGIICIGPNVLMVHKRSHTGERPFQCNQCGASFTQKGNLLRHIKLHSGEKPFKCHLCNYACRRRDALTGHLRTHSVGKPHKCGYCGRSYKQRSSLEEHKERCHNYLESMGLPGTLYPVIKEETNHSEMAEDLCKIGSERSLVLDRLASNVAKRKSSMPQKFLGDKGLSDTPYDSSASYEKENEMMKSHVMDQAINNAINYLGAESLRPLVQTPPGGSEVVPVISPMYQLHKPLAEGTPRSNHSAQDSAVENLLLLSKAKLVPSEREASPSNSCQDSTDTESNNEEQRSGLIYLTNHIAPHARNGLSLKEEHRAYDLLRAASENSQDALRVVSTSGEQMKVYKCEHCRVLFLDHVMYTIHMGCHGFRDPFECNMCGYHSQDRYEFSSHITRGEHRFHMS
Chain of Ikaros (Q96SW2 whole entry, species assumed): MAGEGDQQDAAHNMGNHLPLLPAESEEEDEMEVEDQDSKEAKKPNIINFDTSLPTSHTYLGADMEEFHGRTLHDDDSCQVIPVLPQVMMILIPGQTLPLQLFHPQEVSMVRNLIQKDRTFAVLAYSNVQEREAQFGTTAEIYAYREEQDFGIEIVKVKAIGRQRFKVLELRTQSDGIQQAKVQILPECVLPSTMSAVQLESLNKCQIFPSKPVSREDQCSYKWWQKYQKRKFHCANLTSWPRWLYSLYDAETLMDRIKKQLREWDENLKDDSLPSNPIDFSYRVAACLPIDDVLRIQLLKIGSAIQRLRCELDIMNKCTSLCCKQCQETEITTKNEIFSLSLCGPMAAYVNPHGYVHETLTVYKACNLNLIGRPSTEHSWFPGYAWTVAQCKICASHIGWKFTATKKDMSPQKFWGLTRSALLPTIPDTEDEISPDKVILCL
Chain of Ikaros (Q16531 whole entry partner, species assumed): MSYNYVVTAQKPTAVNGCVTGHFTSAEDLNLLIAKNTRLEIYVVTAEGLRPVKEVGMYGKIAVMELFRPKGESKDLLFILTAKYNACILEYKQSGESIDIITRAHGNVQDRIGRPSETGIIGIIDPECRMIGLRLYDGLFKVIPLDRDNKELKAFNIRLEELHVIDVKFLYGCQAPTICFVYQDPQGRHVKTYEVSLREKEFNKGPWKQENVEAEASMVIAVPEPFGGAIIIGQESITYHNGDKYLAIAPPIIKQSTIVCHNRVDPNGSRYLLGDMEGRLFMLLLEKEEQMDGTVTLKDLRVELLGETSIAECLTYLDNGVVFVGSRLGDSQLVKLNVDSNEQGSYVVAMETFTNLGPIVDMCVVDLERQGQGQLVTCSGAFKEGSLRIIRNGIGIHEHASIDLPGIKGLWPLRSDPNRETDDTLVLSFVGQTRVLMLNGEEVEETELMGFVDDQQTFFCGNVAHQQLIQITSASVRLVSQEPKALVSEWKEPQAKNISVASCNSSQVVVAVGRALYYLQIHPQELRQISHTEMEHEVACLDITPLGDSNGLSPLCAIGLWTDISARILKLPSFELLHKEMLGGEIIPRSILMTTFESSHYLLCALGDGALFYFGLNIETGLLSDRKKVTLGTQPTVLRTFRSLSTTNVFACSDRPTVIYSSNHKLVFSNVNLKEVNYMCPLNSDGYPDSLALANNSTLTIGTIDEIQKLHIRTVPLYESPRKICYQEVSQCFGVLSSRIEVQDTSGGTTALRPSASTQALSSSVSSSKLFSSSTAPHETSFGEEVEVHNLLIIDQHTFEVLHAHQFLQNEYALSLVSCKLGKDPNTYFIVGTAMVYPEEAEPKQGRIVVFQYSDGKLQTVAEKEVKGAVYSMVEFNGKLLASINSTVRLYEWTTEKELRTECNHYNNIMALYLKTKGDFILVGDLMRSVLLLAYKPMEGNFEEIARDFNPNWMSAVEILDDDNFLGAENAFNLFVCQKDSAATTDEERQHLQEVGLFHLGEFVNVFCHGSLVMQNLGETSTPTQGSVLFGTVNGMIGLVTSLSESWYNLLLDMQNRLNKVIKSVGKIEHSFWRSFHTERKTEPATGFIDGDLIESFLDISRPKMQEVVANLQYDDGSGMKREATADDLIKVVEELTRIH

SMILES: O=C1CCC(N2C(=O)c3ccccc3C2=O)C(=O)N1 (centres unmarked) [thalidomide]
- Mean plasma exposure (area under the curve) ([1]; 100 mg/kg/day): 35,100 ng·hr/mL
- Mean plasma exposure (area under the curve) ([1]; 300 mg/kg/day): 78,600 ng·hr/mL
- Mean plasma exposure (area under the curve) ([1]; 1000 mg/kg/day): 143,000 ng·hr/mL
- SALL4 levels in embryos (SALL4): significant decrease in SALL4 levels which was most pronounced on GD12; also recorded: downregulation of SALL4 levels in rabbit embryos
- Binding of G416A SALL4 to cereblon ([2]; HA-tagged G416A SALL4, anti-HA pull-down): disrupted the binding significantly
- Binding of G600A SALL4 to cereblon ([2]; HA-tagged G600A SALL4, anti-HA pull-down): strong, compound-dependent binding to cereblon
- Binding of WT SALL4 to cereblon (co-purifying GST-cereblon, western blot) ([2]; HA-tagged WT SALL4, anti-HA pull-down): strong, compound-dependent binding to cereblon
- Triggering the degradation of Ikaros (Ikaros): only moderately active in triggering the degradation of Ikaros
